According to article PMC4186430, “Modeling of age-dependent amyloid accumulation and γ-secretase inhibition of soluble and insoluble Aβ in a transgenic mouse model of amyloid deposition” (Pharmacology Research & Perspectives, 2013):
Marks after values point to notes of the source that are not given here.

Assays:
insoluble Aβ40 = experiment: Insoluble (FA) brain Aβ40 levels in Tg2576 mice after MRK-560, ELISA; format: in vivo, Tg2576 transgenic mice
Text: (§1) C57BL/6 female mice (Harlan Laboratories, Horst, The Netherlands), Tg2576 transgenic female mice (Taconics, Georgetown, NY), overexpressing human APP with the Swedish mutation (Hsiao et al. [1996]), and Tg2576 wild-type littermates were used in the experiments. The C57BL/6 and wild-type littermates were only used for pharmacokinetic PK sampling and analysis. The housing environment was humidity- and temperature-controlled with a constant 12-h light/dark cycle. The animals were kept in conventional housing (5–10 mice per cage) and had access to standard rodent chow and tap water ad libitum. The transgenic mice were aged at the local AstraZeneca (AZ) animal facilities. On the day of study, the mice were weighed. MRK-560 (synthesized in-house; AZ) or vehicle was administered by oral gavage. Three types of vehicles were used: (1) 1% MCC/NaCMC (Microcrystalline Cellulose/Sodiumcarboxymethyl Cellulose) +0.6% lipoid S100, (2) 20% HPβCD in 0.1 mol/L Meglumine, and (3) 40% HPβCD in 0.3 mol/L Meglumine. Observations of the animals’ health were made throughout all the experiments. Data from 23 MRK-560 studies were used in this analysis and details of all studies can be found in Table 1. For the AP analysis, data from vehicle and untreated Tg2576 mice from 48 additional (i.e., non-MRK-560) in-house studies were used. The additional dataset consisted of Aβ levels measured in Tg2576 mice of various ages, between 3.5 and 26 months at termination. Details of those data can be found in Appelkvist et al. ([2011]). In total, data from 71 preclinical studies were used.
(§2) After blood sampling, mice were sacrificed by decapitation followed by brain samples collection. Cerebellum and olfactory bulbs were removed and the forebrain was divided into left and right hemispheres, weighed, and snap frozen.
(§3) Left hemisphere of the cerebrum was sequentially extracted by diethylamine (DEA) followed by formic acid (FA) to obtain soluble and insoluble fractions of Aβ species, respectively. In short, brain tissue was sonicated in 1:18 (w/v) 0.2% DEA and 50 mmol/L NaCl, pH 11.6. After centrifugation (133,000g, 4°C, 1 h), the supernatant (soluble Aβ) was recovered, neutralized to a pH of 8.0 using 2 mol/L Tris-HCl, and immediately frozen to -70°C. The remaining pellet was sonicated in 1:18 (w/v) 70% FA. Homogenates were centrifuged at +4°C for 1 h at 133,000g. Recovered supernatants (insoluble Aβ) were neutralized to pH 7.5 with 1 mol/L Tris at 1:20 (w/v) dilutions, frozen on dry ice, and stored at −70°C until analysis.
(§4) Amyloid beta (Aβ40) and Aβ42 concentrations were measured in plasma, in soluble (DEA), and insoluble (FA) brain fractions using commercial sandwich ELISA kits (KHB3482 from Invitrogen, Carlsbad, CA, and RUO80177 from Innogenetics, Gent, Belgium). To compensate for matrix effects, plasma or brain homogenates from non-transgenic mice were used for preparation of standard curves. The lower and higher limits of quantification (LLOQ and HLOQ) were determined for each immunoassay plate based on the lowest and highest standard point, respectively. The coefficient of variation was less than20% and the accuracy was between 80% and 120%.
(§5) Statistical comparisons of the vehicle and MRK-560 treatment data were made by unpaired t-tests. The level of significance was set at P < 0.05. All analyses were performed using GraphPad Prism (GraphPad Prism Software Inc., San Diego, CA) and results were reported as mean ± SEM.

soluble Aβ40 [1] = experiment: Soluble (DEA) brain Aβ40 levels in Tg2576 mice after MRK-560, ELISA; format: in vivo, Tg2576 transgenic mice
Text: as §1, §2, §3, §4, §5

Plasma unbound fraction = format: in vitro ADME; conditions: observed, read-out: fu,pl (plasma unbound fraction)
soluble Aβ40 [2] = test system: soluble Aβ40; design: method as in Townsend et al. [2010]; conditions: 12-month-old Tg2576 mice; 3-month MRK-560 treatment; ref Townsend et al. [2010]; cited from earlier work
[3] = study 8, Tg2576, 24 weeks at start, 0.5 μmol/kg p.o., 30 days, 3 h since last dosing
[4] = study 8, Tg2576, 24 weeks at start, 6 μmol/kg p.o., 30 days, 3 h since last dosing, P < 0.05
[5] = study 9, Tg2576, 24 weeks at start, 0.5 μmol/kg p.o., 94 days, 3 h since last dosing
[6] = study 9, Tg2576, 24 weeks at start, 6 μmol/kg p.o., 94 days, 3 h since last dosing
[7] = study 10, Tg2576, 24 weeks at start, 1 μmol/kg p.o., 29 days, 3 h since last dosing, P < 0.05
[8] = study 10, Tg2576, 24 weeks at start, 3 μmol/kg p.o., 29 days, 3 h since last dosing, P < 0.05
[9] = study 10, Tg2576, 24 weeks at start, 6 μmol/kg p.o., 29 days, 3 h since last dosing, P < 0.05
[10] = study 11, Tg2576, 24 weeks at start, 6 μmol/kg p.o., 30 days, 3 h since last dosing, P < 0.05
[11] = study 17, Tg2576, 68 weeks at start, 6 μmol/kg p.o., 4 days, 3 h since last dosing
[12] = study 22, Tg2576, 24–28 weeks at start, 30 μmol/kg p.o., 45 days, 4.5 h since last dosing, P < 0.05
[13] = study 23, Tg2576, 37–40 weeks at start, 30 μmol/kg p.o., 28 days, 4.5 h since last dosing, P < 0.05

fraction unbound (Plasma unbound fraction): 0.004
Structure (SMILES): O=S(=O)(NC1CCC(c2cc(F)ccc2F)(S(=O)(=O)c2ccc(Cl)cc2)CC1)C(F)(F)F (stereo not drawn) [MRK-560, N-[cis-4-[(4-chlorophenyl)-sulfonyl]-4-(2,5-difluorophenyl)cyclohexyl]-1,1,1-trifluoromethanesulfonamide]
Effect on insoluble Aβ40 (insoluble Aβ40; [3]): −8%
Effect on insoluble Aβ40 (insoluble Aβ40; [4]): −57 ^* %
Effect on insoluble Aβ40 (insoluble Aβ40; [5]): 3%
Effect on insoluble Aβ40 (insoluble Aβ40; [6]): 32%
Effect on insoluble Aβ40 (insoluble Aβ40; [7]): −40 ^* %
Effect on insoluble Aβ40 (insoluble Aβ40; [8]): −42 ^* %
Effect on insoluble Aβ40 (insoluble Aβ40; [9]): −69 ^* %
Effect on insoluble Aβ40 (insoluble Aβ40; [10]): −31 ^* %
Effect on insoluble Aβ40 (insoluble Aβ40; study 15, Tg2576, 36 weeks at start, 6 μmol/kg p.o., vehicle 3, 8 days, 3 h since last dosing): 2%
Effect on insoluble Aβ40 (insoluble Aβ40; [11]): −7.6%
Effect on insoluble Aβ40 (insoluble Aβ40; study 20, Tg2576, 32 weeks at start, 30 μmol/kg p.o., 21 days, 4.5 h since last dosing): −70%
Effect on insoluble Aβ40 (insoluble Aβ40; study 21, Tg2576, 36 weeks at start, 6 μmol/kg p.o., vehicle 3, 8 days, 3 h since last dosing): −30%
Effect on insoluble Aβ40 (insoluble Aβ40; [12]): −57 ^* %
Effect on insoluble Aβ40 (insoluble Aβ40; [13]): −67 ^* %
decrease from baseline in soluble Aβ40 levels (soluble Aβ40 [1]; 70 μmol/kg single dose, young mice, 6 h after dosing): 74%
Effect on soluble Aβ40 (soluble Aβ40 [1]; study 7, Tg2576, 20 weeks at start, 70 μmol/kg p.o., 4 days, 3 h since last dosing, P < 0.05): −72 ^* %
Effect on soluble Aβ40 (soluble Aβ40 [1]; [3]): −6%
Effect on soluble Aβ40 (soluble Aβ40 [1]; [4]): −45.6 ^* %
Effect on soluble Aβ40 (soluble Aβ40 [1]; [5]): −17%
Effect on soluble Aβ40 (soluble Aβ40 [1]; [6]): −28%
Effect on soluble Aβ40 (soluble Aβ40 [1]; [7]): −26 ^* %
Effect on soluble Aβ40 (soluble Aβ40 [1]; [8]): −41 ^* %
Effect on soluble Aβ40 (soluble Aβ40 [1]; [9]): −47 ^* %
Effect on soluble Aβ40 (soluble Aβ40 [1]; [10]): −40 ^* %
Effect on soluble Aβ40 (soluble Aβ40 [1]; study 12, Tg2576, 25 weeks at start, 70 μmol/kg p.o., 1 day, 3 h since last dosing, P < 0.05): −76 ^* %
Effect on soluble Aβ40 (soluble Aβ40 [1]; study 13, Tg2576, 25 weeks at start, 1 μmol/kg p.o., 4 days, 3 h since last dosing, P < 0.05): −41 ^* %
Effect on soluble Aβ40 (soluble Aβ40 [1]; study 13, Tg2576, 25 weeks at start, 3 μmol/kg p.o., 4 days, 3 h since last dosing, P < 0.05): −56 ^* %
Effect on soluble Aβ40 (soluble Aβ40 [1]; study 13, Tg2576, 25 weeks at start, 7.5 μmol/kg p.o., 4 days, 3 h since last dosing, P < 0.05): −69 ^* %
Effect on soluble Aβ40 (soluble Aβ40 [1]; study 14, Tg2576, 25 weeks at start, 70 μmol/kg p.o., 1 day, samples 3, 6, 24, 48, 120 h (text: 74% at 6 h), P < 0.05): −74 ^* %
Effect on soluble Aβ40 (soluble Aβ40 [1]; study 15, Tg2576, 36 weeks at start, 6 μmol/kg p.o., vehicle 3, 8 days, 3 h since last dosing, P < 0.05): −50 ^* %
Effect on soluble Aβ40 (soluble Aβ40 [1]; study 16, Tg2576, 60 weeks at start, 6 μmol/kg p.o., 4 days, 3 h since last dosing): −17%
Effect on soluble Aβ40 (soluble Aβ40 [1]; [11]): −6.3%
Effect on soluble Aβ40 (soluble Aβ40 [1]; study 18, Tg2576, 81–89 weeks at start, 70 μmol/kg p.o., 1 day, samples 6, 24, 48, 96 h, time of this value not given): 8%
Effect on soluble Aβ40 (soluble Aβ40 [1]; study 19, Tg2576, 32 weeks at start, 30 μmol/kg p.o., 4 days, 4.5 h since last dosing, P < 0.05): −55 ^* %
Effect on soluble Aβ40 (soluble Aβ40 [1]; study 20, Tg2576, 32 weeks at start, 30 μmol/kg p.o., 21 days, 4.5 h since last dosing, P < 0.05): −70 ^* %
Effect on soluble Aβ40 (soluble Aβ40 [1]; study 21, Tg2576, 36 weeks at start, 6 μmol/kg p.o., vehicle 3, 8 days, 3 h since last dosing, P < 0.05): −63 ^* %
Effect on soluble Aβ40 (soluble Aβ40 [1]; [12]): −57 ^* %
Effect on soluble Aβ40 (soluble Aβ40 [1]; [13]): −56 ^* %
decrease in soluble Aβ40 levels (soluble Aβ40 [2]): 63%
